Experimental findings from patent publication US20230150978A1, “QUINAZOLINONE DERIVATIVES AND USES THEREOF FOR TREATING A CANCER” (ENYO PHARMA, priority 2020, published 2023) are described below.

Like-named read-outs stand apart in the source and are kept apart here.

One assay has as its system Calreticulin. In words: Calreticulin release (ER to plasma membrane translocation) screen, Nano-Glo HiBiT extracellular detection. As to conditions: extracellular luminescence, read-out: CalR EC50. The format is cell-based. How it is done: Construction of pBiT3.1-Calreticulin Plasmid Calreticulin derived from pCMV6-AC plasmid (ref. SC320287, Origene) was amplified by PCR using the following set of primers: Seq ID No 3: forward, 5′-[…]-3′; Seq ID No 4: reverse, 5′-[…]-3′. The PCR fragment was subsequently digested by EcoRI and XhoI (R3101S and R0146S respectively, New England Biolabs) and inserted between the EcoRI and XhoI sites in the plasmid pBiT3.1-C(ref. N237A, Promega). The resulting plasmid (pBiT3.1-Calreticulin) was grown in NEB10-beta competent E. coli (ref. C3019I, New England Biolabs) and purified using the NucleoBond Xtra Midi Kit (ref. 740410, Macherey-Nagel).
Construction of Calreticulin Reporter Cell Line
pBiT3.1-Calreticulin was transfected in MDA-MB-231 cells (ref. ATCC HTB-2) using Lipofectamine 2000 reagent (ref. 11668, Invitrogen). Transfected cells were selected for blasticidin resistance (15 μg/ml, ref. Al 113903 Gibco) in medium containing DMEM 1× (ref. 1995065, Gibco) with 1% penicillin and streptomycin, and 10% fetal bovine serum.
Screen for Calreticulin-ER to Plasma Membrane Translocating Drugs
MDA-MB-231 cells stably expressing Calreticulin-HiBiT (10^4 cells/well) were seeded into white 96-well plates (ref.3917, Corning) and allowed to recover for 24h. […] Mitoxantrone dihydrochloride (ref. M6545, Sigma-Aldrich) was used as a positive control. Extracellular translocation of Calreticulin was measured using the Nano-Glo HiBiT extracellular detection system (ref. N2422, Promega). Nano-Glo HiBiT Extracellular Reagent was prepared in advance, added to the well and incubated 10 min.
Luminescence of the extracellular Calreticulin-HiBiT was quantified using the Spark 20M spectrofluorimeter (TECAN).

The test system of the next assay is HMGB1. In words: HMGB1 release screen, Nano-Glo HiBiT extracellular detection. As to conditions: extracellular luminescence. The format is cell-based. The protocol: Construction of pBiT3.1-HMGB1 Plasmid
HMGB1 derived from pCMV6-AC-GFP plasmid (ref. RG205918, Origene) was amplified by PCR using the following set of primers: Seq ID No 1: forward, 5′-[…]-3′; Seq ID No 2: reverse, 5′-[…]-3′. The PCR fragment was subsequently digested by EcoRI and XhoI (R3101S and R0146S respectively, New England Biolabs) and inserted between the EcoRI and XhoI sites in the plasmid pBiT3.1-C(ref. N237A, Promega). The resulting plasmid (pBiT3.1-HMGB1) was grown in NEB10-beta competent E. coli (ref. C3019I, New England Biolabs) and purified using the NucleoBond Xtra Midi Kit (ref. 740410, Macherey-Nagel).
Construction of HMGB1 Reporter Cell Line
pBiT3.1-HMGB1 was transfected in MDA-MB-231 cells (ref. ATCC HTB-2) using Lipofectamine 2000 reagent (ref. 11668, Invitrogen). Transfected cells were selected for blasticidin resistance (15 μg/ml, ref. Al 113903 Gibco) in medium containing DMEM 1× (ref. 1995065, Gibco) with 1% penicillin and streptomycin, and 10% fetal bovine serum.
Screen for HMGB1-Releasing Drugs
MDA-MB-231 cells stably expressing HMGB1-HiBiT (10^4 cells/well) were seeded into white 96-well plates (ref.3917, Corning) and allowed to recover for 24h. […] Mitoxantrone dihydrochloride (ref. M6545, Sigma-Aldrich) was used as a positive control. Extracellular translocation of HMGB1 was measured using the Nano-Glo HiBiT extracellular detection system (ref. N2422, Promega). Nano-Glo HiBiT Extracellular Reagent was prepared in advance, added to the well and incubated 10 min. Luminescence of the extracellular HMGB1-HiBiT was quantified using the Spark 20M spectrofluorimeter (TECAN)

Setting [1] is: MDA-MB-231 cells stably expressing Calreticulin-HiBiT.
[2] abbreviates: MDA-MB-231 cells stably expressing HMGB1-HiBiT.
Setting [3] is: Homo sapiens, MDA-MB-231, MDA-MB-231 cells stably expressing Calreticulin-HiBiT.
[4] abbreviates: Homo sapiens, MDA-MB-231, MDA-MB-231 cells stably expressing HMGB1-HiBiT.

Consider `COc1ccc2nc(CN3CC(C)c4ccccc43)[nH]c(=O)c2c1` (single isomer, unassigned) [Ex. #4, 6-methoxy-2-[(3-methylindolin-1-yl)methyl]-3H-quinazolin-4-one], for which the EC50 in the assay with Calreticulin (setting [1]) was 0.172 µM; with HMGB1 (setting [2]), 0.207 µM.

As for `COc1ccc2nc(CN3CC(C)c4ccccc43)[nH]c(=O)c2c1` (single isomer, unassigned) [Ex. #5, 6-methoxy-2-[(3-methylindolin-1-yl)methyl]-3H-quinazolin-4-one], the EC50 with Calreticulin (setting [1]) worked out at 2.31 µM; with HMGB1 (setting [2]), 3.46 µM.

With `CC1CN(Cc2nc3ccc(Cl)cc3c(=O)[nH]2)c2ccccc21` (single isomer, unassigned) [Ex. #38, 6-chloro-2-[(3-methylindolin-1-yl)methyl]-3H-quinazolin-4-one], the results for the EC50 in the assay with Calreticulin (setting [1]) and with HMGB1 (setting [2]) were 0.499 µM and 0.721 µM, respectively.

Regarding `CC1CN(Cc2nc3ccc(Cl)cc3c(=O)[nH]2)c2ccccc21` (single isomer, unassigned) [Ex. #39, 6-chloro-2-[(3-methylindolin-1-yl)methyl]-3H-quinazolin-4-one], the EC50 with Calreticulin (setting [1]) was 8.06 µM; in the assay with HMGB1 (setting [2]), 10.4 µM.

Take `COc1ccc2nc(CN3CCCN(C)c4ccccc43)[nH]c(=O)c2c1` [Ex. 23, 6-methoxy-2-[(1-methyl-3,4-dihydro-2H-1,5-benzodiazepin-5-yl)methyl]-3H-quinazolin-4-one]: the results for the EC50 in the assay on Calreticulin (setting [3]) and with HMGB1 (setting [4]) were 1.96 µM and 2 µM, respectively.

`COc1ccc2nc(CN3CCc4ccccc43)[nH]c(=O)c2c1` [Ex. #1, 2-(indolin-1-ylmethyl)-6-methoxy-3H-quinazolin-4-one]: the EC50 with Calreticulin (setting [3]) stood at 0.231 µM; with HMGB1 (setting [4]) it was 2.72 µM.

As to `COc1ccc2nc(CN3CC(C)(C)c4ccccc43)[nH]c(=O)c2c1` [Ex. #2, 2-[(3,3-dimethylindolin-1-yl)methyl]-6-methoxy-3H-quinazolin-4-one], the EC50 in the assay on Calreticulin (setting [3]) was 0.4 µM; in the assay with HMGB1 (setting [4]), 0.6 µM.

For `COc1ccc2nc(CN3Cc4ccccc4C3)[nH]c(=O)c2c1` [Ex. #10, 2-(isoindolin-2-ylmethyl)-6-methoxy-3H-quinazolin-4-one], the EC50 in the assay on Calreticulin (setting [3]) stood at 4.46 µM; with HMGB1 (setting [4]) it was 6.86 µM.

On to `COc1ccc2nc(CN3CCCc4cccc(Cl)c43)[nH]c(=O)c2c1` [Ex. #12, 2-[(8-chloro-3,4-dihydro-2H-quinolin-1-yl)methyl]-6-methoxy-3H-quinazolin-4-one], for which the EC50 amounted to 0.522 µM in the assay with Calreticulin (setting [3]) and 0.751 µM with HMGB1 (setting [4]).

Take `COc1ccc2nc(CN3CCOc4cccc(OC)c43)[nH]c(=O)c2c1` [Ex. #14, 6-methoxy-2-[(5-methoxy-2,3-dihydro-1,4-benzoxazin-4-yl)methyl]-3H-quinazolin-4-one]: the EC50 was 1.96 µM with Calreticulin (setting [3]) and 2.16 µM in the assay on HMGB1 (setting [4]).

For `COc1ccc2nc(CN3CCCc4ccccc43)[nH]c(=O)c2c1` [Ex. #15, 2-(3,4-dihydro-2H-quinolin-1-ylmethyl)-6-methoxy-3H-quinazolin-4-one], the EC50 in the assay with Calreticulin (setting [3]) was determined as 1.06 µM; in the assay with HMGB1 (setting [4]), 3.34 µM.

As to `COc1ccc2nc(CN3CCc4c(Br)cccc4C3)[nH]c(=O)c2c1` [Ex. #18, 2-[(5-bromo-3,4-dihydro-1H-isoquinolin-2-yl)methyl]-6-methoxy-3H-quinazolin-4-one], the EC50 in the assay with Calreticulin (setting [3]) is 2.06 µM; in the assay on HMGB1 (setting [4]), 9.36 µM.

As to `COc1ccc2nc(CN3CCc4cccc(OC)c4C3)[nH]c(=O)c2c1` [Ex. #19, 6-methoxy-2-[(8-methoxy-3,4-dihydro-1H-isoquinolin-2-yl)methyl]-3H-quinazolin-4-one], the EC50 in the assay on Calreticulin (setting [3]) was found to be 7.36 µM; in the assay on HMGB1 (setting [4]), 10.2 µM.

For the compound `COc1ccc2nc(CN3CCc4c(Cl)cccc4C3)[nH]c(=O)c2c1` [Ex. #20, 2-[(5-chloro-3,4-dihydro-1H-isoquinolin-2-yl)methyl]-6-methoxy-3H-quinazolin-4-one], the values for the EC50 in the assay with Calreticulin (setting [3]) and in the assay with HMGB1 (setting [4]) were 4.26 µM and 10.8 µM, respectively.

Turning to `COc1ccc2nc(CN3CCc4c(cccc4NS(C)(=O)=O)C3)[nH]c(=O)c2c1` [Ex. #21, N-[2-[(6-methoxy-4-oxo-3H-quinazolin-2-yl)methyl]-3,4-dihydro-1H-isoquinolin-5-yl]methanesulfonamide], the EC50 came out at 3.96 µM with Calreticulin (setting [3]) and 11.2 µM in the assay with HMGB1 (setting [4]).

As to `O=c1[nH]c(CN2CCc3ccccc32)nc2ccc(Cl)cc12` [Ex. #36, 6-chloro-2-(indolin-1-ylmethyl)-3H-quinazolin-4-one], the EC50 in the assay on Calreticulin (setting [3]) worked out at 1.8 µM; with HMGB1 (setting [4]) it was 1.01 µM.

With `CC1Cc2ccccc2N1Cc1nc2ccc(Cl)cc2c(=O)[nH]1` (centres unmarked) [Ex. #41, 6-chloro-2-[(2-methylindolin-1-yl)methyl]-3H-quinazolin-4-one], the EC50 in the assay on Calreticulin (setting [3]) was 8.01 µM; in the assay on HMGB1 (setting [4]), 9.61 µM.

Turning to `O=c1[nH]c(CN2CC3(CCCC3)c3ccccc32)nc2ccc(Cl)cc12` [Ex. #42, 6-chloro-2-(spiro[cyclopentane-1,3′-indoline]-1′-ylmethyl)-3H-quinazolin-4-one], the EC50 in the assay on Calreticulin (setting [3]) amounted to 1.76 µM; in the assay with HMGB1 (setting [4]) it was 3.55 µM.

On to `Cc1cccc2c1CCN2Cc1nc2ccc(Cl)cc2c(=O)[nH]1` [Ex. #43, 6-chloro-2-[(4-methylindolin-1-yl)methyl]-3H-quinazolin-4-one], for which the EC50 is 1.07 µM with Calreticulin (setting [3]) and 1.15 µM in the assay on HMGB1 (setting [4]).

`Cc1cccc2c1N(Cc1nc3ccc(Cl)cc3c(=O)[nH]1)CC2` [Ex. #44, 6-chloro-2-[(7-methylindolin-1-yl)methyl]-3H-quinazolin-4-one]: the EC50 was 1.26 µM with Calreticulin (setting [3]) and 1.33 µM in the assay on HMGB1 (setting [4]).

As for `Cc1ccc2c(c1)N(Cc1nc3ccc(Cl)cc3c(=O)[nH]1)CC2` [Ex. #45, 6-chloro-2-[(6-methylindolin-1-yl)methyl]-3H-quinazolin-4-one], the figures for the EC50 in the assay with Calreticulin (setting [3]) and in the assay on HMGB1 (setting [4]) were 1.21 µM and 4.66 µM, respectively.

As for `Cc1ccc2c(c1)CCN2Cc1nc2ccc(Cl)cc2c(=O)[nH]1` [Ex. #46, 6-chloro-2-[(5-methylindolin-1-yl)methyl]-3H-quinazolin-4-one], the EC50 amounted to 2.71 µM with Calreticulin (setting [3]) and 5.51 µM with HMGB1 (setting [4]).

Regarding `O=c1[nH]c(CN2CCc3cc(F)ccc32)nc2ccc(Cl)cc12` [Ex. #47, 6-chloro-2-[(5-fluoroindolin-1-yl)methyl]-3H-quinazolin-4-one], the EC50 in the assay on Calreticulin (setting [3]) turned out to be 2.18 µM; in the assay on HMGB1 (setting [4]) it was 3.98 µM.

Turning to `O=c1[nH]c(CN2CCc3cc(Br)ccc32)nc2ccc(Cl)cc12` [Ex. #48, 2-[(5-bromoindolin-1-yl)methyl]-6-chloro-3H-quinazolin-4-one], the EC50 with Calreticulin (setting [3]) was found to be 5.96 µM; in the assay with HMGB1 (setting [4]), 6.06 µM.

Regarding `COc1cccc2c1N(Cc1nc3ccc(Cl)cc3c(=O)[nH]1)CC2` [Ex. #49, 6-chloro-2-[(7-methoxyindolin-1-yl)methyl]-3H-quinazolin-4-one], the EC50 with Calreticulin (setting [3]) worked out at 7.56 µM; with HMGB1 (setting [4]) it was 11.2 µM.

For the compound `O=c1[nH]c(CN2Cc3ccccc3C2)nc2ccc(Cl)cc12` [Ex. #50, 6-chloro-2-(isoindolin-2-ylmethyl)-3H-quinazolin-4-one], the EC50 in the assay on Calreticulin (setting [3]) was found to be 4.66 µM; with HMGB1 (setting [4]), 11.6 µM.

Consider `O=c1[nH]c(CN2CCCc3ccccc32)nc2ccc(Cl)cc12` [Ex. #51, 6-chloro-2-(3,4-dihydro-2H-quinolin-1-ylmethyl)-3H-quinazolin-4-one], for which the EC50 was 10.3 µM in the assay on Calreticulin (setting [3]) and 11.8 µM with HMGB1 (setting [4]).

Take `COc1cccc2c1CCCN2Cc1nc2ccc(Cl)cc2c(=O)[nH]1` [Ex. #52, 6-chloro-2-[(5-methoxy-3,4-dihydro-2H-quinolin-1-yl)methyl]-3H-quinazolin-4-one]: the EC50 stood at 1.26 µM in the assay with Calreticulin (setting [3]) and 1.36 µM in the assay on HMGB1 (setting [4]).
